Bridge positions count the residues as written; N and C are the ends. Square brackets hold non-standard residues; d marks the D form. Peptide text beside a SMILES is read from it.
How the values were obtained:
human neutrophils = assay: Time-lapse imaging and NET quantification (NETosis); type: cell-based; conditions: 50 µM peptide, 5 µM Ca-Ionophore, 12 h
Protocol: Peripheral venous blood was isolated from consenting healthy adult volunteers in heparin tubes as previously described. Briefly, blood samples were on Histopaque 1119 (Sigma-Aldrich) and then centrifuged for 20 min at 800 × g. The plasma was collected and centrifuged for a second time for 20 min at 800 × g. The neutrophil layer was collected and washed in Hyclone Hank’s Balanced Salt Solution (HBSS) -Ca, -Mg, -Phenol red (GE Healthcare) supplemented with 10 mM HEPES (Invitrogen) 0.1% FBS and further purified with a discontinuous Percoll (GE Healthcare) gradient consisting of layers with densities of 85, 80, 75, 70 and 65% and centrifuged for 20 min at 800 × g. Neutrophil-enriched layers were then collected and washed, and neutrophil purity was assessed using flow cytometry.
About 5 × 10^4 human neutrophils were seeded in a black 96-well plate (PerkinElmer) in HyClone HBSS +Ca, +Mg, - Phenol red (GE Healthcare) containing 10 mM HEPES (Invitrogen). Cells were pre-incubated with the corresponding peptide for 60 min prior to the start of the experiment. DNA of live cells was stained with 4 µg/mL Hoechst (membrane permeable; Thermo Scientific) and DNA from dead cells with 0.2 µM Sytox-green (membrane impermeable; Invitrogen). Cells were stimulated with 100 nM PMA, 5 µM Ca-Ionophore or 0.1 mg/mL cholesterol crystals at the start of the microscope acquisition. Plates stimulated with cholesterol crystals were centrifuged at 300×g for 5 min at RT immediately prior to microscope acquisition. The cells were imaged on an inverted Nikon wide-field microscope system at 37 °C and CO2 (5%). Four fields of view were acquired per well every 15 mins for 10–15 h using a 40x objective. NETs were differentiated from necrotic cells by the size of the sytox signal using FIJI[86]. […] [85]. Area measurements were distributed into bins of increasing area sizes and plotted as a percentage of the total number of Sytox-green positive (dead) cells.

Bio-hPADI4 wt = target: T1, Bio-hPADI4 wt (Homo sapiens, UniProt Q9UM07); assay: Surface plasmon resonance (SPR), single cycle kinetics, peptide binding to immobilised PADI4
T1 construct: PADI4 (residues 1–663); Avi-Tag (biotinylated by BirA); made in house; host or cells: E. coli BL21-DE3 co-expressing BirA
Protocol: Single cycle kinetics analysis by SPR was carried out using a Biacore T200 or S200 and a Biotin CAPture kit, series S (Cytiva). […] 50 mM HEPES (pH 7.5), 150 mM NaCl, 2 mM DTT, 0.05 % Tween-20, 0.1% DMSO and variable CaCl2 (as specified) was used as the running buffer and experiments performed at 25 °C.
Samples were run with 120 s contact time, and variable dissociation time (often 360 s). Data were analysed using the Biacore T200 analysis software; data was fitted to a 1:1 binding model accounting for baseline drift where necessary. Data are presented as the average ± standard deviation of at least two independent replicates.

hPADI4 = target: T2, hPADI4 (Homo sapiens, UniProt Q9UM07); assay: COLDER assay, inhibition of PADI4 at 10 mM CaCl2 (substrate BAEE); type: biochemical; conditions: COLDER, 10 mM CaCl2, peptide 10–0.0003 µM
T2 construct: PADI4 (residues 1–663); Avi-Tag (unbiotinylated); made in house; host or cells: E. coli BL21(DE3) without BirA
Protocol: PADI4 activity was assessed using the COLDER assay[43] that measures the formation of urea-containing compounds (e.g. citrulline). The reaction was carried out in a 96-well plate with a final volume of 50 µl. His-PADI4 (50 nM) was incubated with different concentrations of peptides (100 µM to 0.3 nM) in the presence of CaCl2 (from 10 mM to 0.001 mM as specified) for 10 min. The reaction was started by the addition of 10 mM N^α-Benzoyl-L-arginine ethyl ester hydrochloride (BAEE, Merck). After 30 min, the reaction was quenched with EDTA (50 mM final concentration). For colour development, 200 µl of COLDER solution, consisting of 1 volume of solution A (80 mM diacetyl monoxime/2,3-butanedione monoxime (Merck) and 2 mM thiosemicarbazide (Acros Organics)) and 3 volumes of solution B (3 M H3PO4, 6 M H2SO4 and 2 mM NH4Fe(SO4)2) were added to each well and the mixture was heated at 95 °C for 15 min. After cooling to RT, absorbance at 540 nm was measured, and citrulline concentration was determined using a standard curve of citrulline standards. All studies were performed within the linear range of PADI4 activity, and data analysis was performed using Prism GraphPad (Dotmatics). Data are presented as the average ± standard error of the mean from at least two independent replicates.

T2 sequence (Q9UM07 whole entry, the tested form may be a part): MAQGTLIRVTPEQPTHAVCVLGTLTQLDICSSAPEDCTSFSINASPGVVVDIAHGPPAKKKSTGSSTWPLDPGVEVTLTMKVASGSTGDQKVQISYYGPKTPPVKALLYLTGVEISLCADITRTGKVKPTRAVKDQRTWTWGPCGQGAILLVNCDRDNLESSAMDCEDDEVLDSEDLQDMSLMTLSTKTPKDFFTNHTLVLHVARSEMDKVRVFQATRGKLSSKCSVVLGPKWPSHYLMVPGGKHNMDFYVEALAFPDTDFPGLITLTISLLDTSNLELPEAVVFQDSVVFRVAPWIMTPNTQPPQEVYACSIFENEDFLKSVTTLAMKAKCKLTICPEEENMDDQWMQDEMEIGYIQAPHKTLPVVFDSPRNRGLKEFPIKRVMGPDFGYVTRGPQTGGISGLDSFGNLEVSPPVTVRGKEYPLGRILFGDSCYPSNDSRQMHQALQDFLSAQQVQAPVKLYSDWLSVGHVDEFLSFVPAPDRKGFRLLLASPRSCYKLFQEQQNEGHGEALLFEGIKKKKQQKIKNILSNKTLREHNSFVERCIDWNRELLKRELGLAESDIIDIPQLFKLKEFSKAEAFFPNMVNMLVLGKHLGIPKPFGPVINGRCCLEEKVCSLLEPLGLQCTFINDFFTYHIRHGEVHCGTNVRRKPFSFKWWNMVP
T1 sequence (Q9UM07 whole entry, the tested form may be a part): as above

## N=C(N)NCCC[C@@H]1NC(=O)[C@H](CC(=O)O)NC(=O)[C@@H](Cc2ccc(O)cc2)NC(=O)CSC[C@@H](C(=O)NCC(N)=O)NC(=O)[C@H](Cc2ccc(O)cc2)NC(=O)[C@H](CCCCN)NC(=O)[C@@H]2CCCN2C(=O)[C@H](Cc2c[nH]cn2)NC(=O)[C@H](CCCNC(=N)N)NC(=O)[C@H](Cc2ccc(O)cc2)NC(=O)[C@H](Cc2c[nH]cn2)NC(=O)[C@H](Cc2c[nH]cn2)NC1=O [PADI4_3i] ({CH2CO}-[dY]DRHHYRHPKYCG-NH2; thioether N-12)
Human neutrophils
  NETosis induced by calcium ionophore: neither response was affected
Bio-hPADI4 wt
  binding to PADI4 (in words): did not bind
hPADI4
  PADI4 inhibition (in words): did not bind or inhibit PADI4

From publication PMC11555231 (Nature Communications, 2024)
